Assay results: patent US9896441B2 (Lycera Corporation, priority 2014, dated 2018)

Columns and labels:
RORγ-LBD = molecular target: T1, RORγ-LBD (Homo sapiens, UniProt P51449); assay: RORγ-Ligand Binding Domain (LBD) TR-FRET Assay; type: biochemical; conditions: for TR-FRET Assay Max Response: maximum response;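 for TR-FRET Assay Max Response: 665/615 nm signal ratio set to 100 without ursolic acid or test compound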
T1 construct: made in house; host or cells: SF9 cells (baculovirus); used as diluted lysate
T1 sequence (P51449 269-508 limits assumed): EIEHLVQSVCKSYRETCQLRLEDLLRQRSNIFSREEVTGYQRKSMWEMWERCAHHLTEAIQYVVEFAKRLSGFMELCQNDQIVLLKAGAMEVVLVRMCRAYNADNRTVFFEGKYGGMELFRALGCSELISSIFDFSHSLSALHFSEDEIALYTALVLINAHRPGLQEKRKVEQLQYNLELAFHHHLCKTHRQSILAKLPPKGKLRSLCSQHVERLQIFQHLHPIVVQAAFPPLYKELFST
Method in brief: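 TR-FRET read-out using a biotin-tagged SRC1 coactivator LXXLL peptide (200 nM final), with the antagonist ursolic acid present at 2 μM final. Receptor is His-tagged LBD expressed in SF9 cells, ~3 nM final in pH 7.0 Tris/KCl/EDTA/DTT/BSA buffer; compounds in 1% DMSO final.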

Gal4-RORγ-LBD = molecular target: T2, Gal4-RORγ-LBD (Homo sapiens, UniProt P51449); assay: Gal4-RORγ Luciferase Reporter Assay in HEK-293T Cells; type: cell-based; conditions: HEK-293 cells; for Gal4-RORγ Assay Max Response: maximum response
T2 construct: expressed in transfected cells
T2 sequence (P51449 269-508 limits assumed): T1 sequence (P51449 269-508 limits assumed)
Method in brief: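 Max Response was taken as the upper plateau of a 4-parameter logistic fit of luciferase signal, normalized to 100 for wells without ursolic acid or compound. Transiently Gal4-RORγ-LBD/Gal4-luc transfected HEK-293 cells carrying […] ursolic acid were incubated with test compounds (0.2% DMSO) overnight at 37 °C and read with One-Glo.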

[1] = luciferase reporter, in presence of ursolic acid
[2] = with 2 μM ursolic acid (RORγ antagonist), highest test concentration 10 μM
[3] = ursolic acid present, luciferase readout

Row | EC50 (RORγ-LBD; RORγ-LBD TR-FRET assay) [nM] | EC50 (Gal4-RORγ-LBD; [1]) [nM] | EC50 (RORγ-LBD; [2]) [nM] | EC50 (Gal4-RORγ-LBD; [3]) [nM] | Structure (SMILES) | TR-FRET Assay Max Response (RORγ-LBD; RORγ-LBD TR-FRET assay) | Gal4-RORγ Assay Max Response (Gal4-RORγ-LBD; [1])
1 | < 500 | < 500 | – | – | C/C(=C\c1ccc2c(c1)N(S(=O)(=O)c1cccc(C(F)(F)F)c1)C[C@H](NS(C)(=O)=O)C2)c1c(F)cccc1Cl [Example 116H, (R,E)-N-(7-(2-(2-chloro-6-fluorophenyl)prop-1-en-1-yl)-1-((3-(trifluoromethyl)phenyl)-sulfonyl)-1,2,3,4-tetra-hydroquinolin-3-yl)methanesulfonamide] | *** (a value in the range of greater than 150 to 200) | ** (a value in the range of greater than 90 to 150)
2 | < 500 | 500 to 5000 | – | – | C/C(=C\c1ccc2c(c1)N(S(=O)(=O)c1cccc(C(F)(F)F)c1)C[C@@H](NS(C)(=O)=O)C2)c1c(F)cccc1Cl [Example 116I, (S,E)-N-(7-(2-(2-chloro-6-fluorophenyl)prop-1-en-1-yl)-1-((3-(trifluoromethyl)phenyl)-sulfonyl)-1,2,3,4-tetrahydroquinolin-3-yl)methanesulfonamide] | *** (a value in the range of greater than 150 to 200) | ** (a value in the range of greater than 90 to 150)
3 | < 500 | 500 to 5000 | – | – | C/C(=C\c1ccc2c(c1)N(S(=O)(=O)c1cccc(C(F)(F)F)c1)[C@H](C)[C@H](NS(C)(=O)=O)C2)c1c(F)cccc1Cl [Example 116J, N-((2R,3R)-7-((E)-2-(2-chloro-6-fluorophenyl)prop-1-en-1-yl)-2-methyl-1-((3-(trifluoromethyl)phenyl)sulfonyl)-1,2,3,4-tetra-hydroquinolin-3-yl)methanesulfonamide] | *** (a value in the range of greater than 150 to 200) | *** (a value in the range of greater than 150 to 200)
4 | < 500 | 500 to 5000 | – | – | COc1cc(S(=O)(=O)N2C[C@H](CCNC(=O)C(=O)O)Oc3ccc(/C=C(\C)c4c(F)cccc4Cl)cc32)ccc1F [Example 116K, (S,E)-2-((2-(6-(2-(2-chloro-6-fluorophenyl)prop-1-en-1-yl)-4-((4-fluoro-3-methoxyphenyl)sulfonyl)-3,4-dihydro-2H-benzo[b][1,4]-oxazin-2-yl)ethyl)amino)-2-oxoacetic acid] | *** (a value in the range of greater than 150 to 200) | ** (a value in the range of greater than 90 to 150)
5 | – | – | < 500 | < 500 | C/C(=C\c1ccc2c(c1)N(S(=O)(=O)c1cccc(C(F)(F)F)c1)C[C@H](CNC(=O)N1CCOCC1)O2)c1c(F)cccc1Cl [Example 116N, (S,E)-N-((6-(2-(2-chloro-6-fluorophenyl)prop-1-en-1-yl)-4-((3-(trifluoromethyl)phenyl)sulfonyl)-3,4-dihydro-2H-benzo[b][1,4]-oxazin-2-yl)methyl)morpholine-4-carboxamide] | – | –
6 | – | – | < 500 | < 500 | C/C(=C\c1ccc2c(c1)N(S(=O)(=O)c1cccc(C(F)(F)F)c1)C[C@H](CNC(=O)N1CCC(C(=O)O)CC1)O2)c1c(F)cccc1Cl [Example 116O, (S,E)-1-(((6-(2-(2-chloro-6-fluorophenyl)prop-1-en-1-yl)-4-((3-(trifluoromethyl)phenyl)sulfonyl)-3,4-dihydro-2H-benzo[b][1,4]oxazin-2-yl)methyl)carbamoyl)piperidine-4-carboxyic acid] | – | –
7 | – | – | < 500 | < 500 | C/C(=C\c1ccc2c(c1)N(S(=O)(=O)c1cccc(C(F)(F)F)c1)C[C@H](CNC(=O)N(C)CCC(=O)O)O2)c1c(F)cccc1Cl [Example 116P, (S,E)-3-(3-((6-(2-(2-chloro-6-fluorophenyl)prop-1-en-1-yl)-4-((3-(trifluoromethyl)phenyl)sulfonyl)-3,4-dihydro-2H-benzo[b][1,4]-oxazin-2-yl)methyl)-1-methylureido)propanoic acid] | – | –
8 | < 500 | 500 to 5000 | – | – | C/C(=C\c1ccc2c(c1)N(S(=O)(=O)c1cccc(C(F)(F)F)c1)C[C@H](CCCN1CCCC1)O2)c1c(F)cccc1Cl [Example 117, (S,E)-6-(2-(2-Chloro-6-fluorophenyl)prop-1-en-1-yl)-2-(3-(pyrrolidin-1-yl)propyl)-4-((3-(trifluoromethyl)phenyl)sulfonyl)-3,4-dihydro-2H-benzo[b][1,4]oxazine] | *** (a value in the range of greater than 150 to 200) | ** (a value in the range of greater than 90 to 150)
9 | < 500 | 500 to 5000 | – | – | C/C(=C\c1ccc2c(c1)N(S(=O)(=O)c1cccc(C(F)(F)F)c1)C[C@H](CCN1CCCC1)O2)c1c(F)cccc1Cl [Example 118, (S,E)-6-(2-(2-Chloro-6-fluorophenyl)prop-1-en-1-yl)-2-(2-(pyrrolidin-1-yl)ethyl)-4-((3-(trifluoromethyl)phenyl)sulfonyl)-3,4-dihydro-2H-benzo[b][1,4]oxazine] | – | –
10 | < 500 | < 500 | – | – | C/C(=C\c1ccc2c(c1)N(S(=O)(=O)c1cccc(C(F)(F)F)c1)C[C@H](CCN1CCOCC1)O2)c1c(F)cccc1Cl [Example 119A, (S,E)-6-(2-(2-chloro-6-fluorophenyl)prop-1-en-1-yl)-2-(2-morpholinoethyl)-4-((3-(trifluoromethyl)phenyl)sulfonyl)-3,4-dihydro-2H-benzo[b][1,4]oxazine] | **** (a value greater than 200) | ** (a value in the range of greater than 90 to 150)
11 | < 500 | 500 to 5000 | – | – | C/C(=C\c1ccc2c(c1)N(S(=O)(=O)c1cccc(C(F)(F)F)c1)C[C@H](CCCN1CCC(O)C1)O2)c1c(F)cccc1Cl (stereo partly drawn) [Example 119B, 1-(3-((S)-6-((E)-2-(2-chloro-6-fluorophenyl)prop-1-en-1-yl)-4-((3-(trifluoromethyl)-phenyl)-sulfonyl)-3,4-dihydro-2H-benzo[b][1,4]-oxazin-2-yl)propyl)-pyrrolidin-3-ol] | *** (a value in the range of greater than 150 to 200) | ** (a value in the range of greater than 90 to 150)
12 | < 500 | 500 to 5000 | – | – | C/C(=C\c1ccc2c(c1)N(S(=O)(=O)c1cccc(C(F)(F)F)c1)C[C@H](CCN1CCC(O)C1)O2)c1c(F)cccc1Cl (stereo partly drawn) [Example 119C, 1-(2-((S)-6-((E)-2-(2-chloro-6-fluorophenyl)prop-1-en-1-yl)-4-((3-(trifluoromethyl)-phenyl)sulfonyl)-3,4-dihydro-2H-benzo[b][1,4]oxazin-2-yl)ethyl)pyrrolidin-3-ol] | *** (a value in the range of greater than 150 to 200) | ** (a value in the range of greater than 90 to 150)
13 | < 500 | < 500 | – | – | C/C(=C\c1ccc2c(c1)N(S(=O)(=O)c1cccc(C(F)(F)F)c1)C[C@H](CCCN1CCOCC1)O2)c1c(F)cccc1Cl [Example 119D, (S,E)-6-(2-(2-chloro-6-fluorophenyl)prop-1-en-1-yl)-2-(3-morpholinopropyl)-4-((3-(trifluoromethyl)-phenyl)sulfonyl)-3,4-dihydro-2H-benzo[b][1,4]oxazine] | *** (a value in the range of greater than 150 to 200) | ** (a value in the range of greater than 90 to 150)
14 | < 500 | 500 to 5000 | – | – | CCOC(=O)C1CCN(CCC[C@H]2CN(S(=O)(=O)c3cccc(C(F)(F)F)c3)c3cc(/C=C(\C)c4c(F)cccc4Cl)ccc3O2)CC1 [Example 119E, ethyl (S,E)-1-(3-(6-(2-(2-chloro-6-fluorophenyl)prop-1-en-1-yl)-4-((3-(trifluoromethyl)phenyl)sulfonyl)-3,4-dihydro-2H-benzo[b][1,4]oxazin-2-yl)propyl)piperidine-4-carboxylate] | *** (a value in the range of greater than 150 to 200) | ** (a value in the range of greater than 90 to 150)
15 | < 500 | > 10000 | – | – | CCOC(=O)C1CCN(CC[C@H]2CN(S(=O)(=O)c3cccc(C(F)(F)F)c3)c3cc(/C=C(\C)c4c(F)cccc4Cl)ccc3O2)CC1 [Example 119F, ethyl (S,E)-1-(2-(6-(2-(2-chloro-6-fluorophenyl)prop-1-en-1-yl)-4-((3-(trifluoromethyl)phenyl)sulfonyl)-3,4-dihydro-2H-benzo[b][1,4]oxazin-2-yl)ethyl)piperidine-4-carboxylate] | *** (a value in the range of greater than 150 to 200) | –
16 | < 500 | < 500 | – | – | C/C(=C\c1ccc2c(c1)N(S(=O)(=O)c1cccc(C(F)(F)F)c1)C[C@H](CCN1CCS(=O)(=O)CC1)O2)c1c(F)cccc1Cl [Example 119G, (S,E)-4-(2-(6-(2-(2-chloro-6-fluorophenyl)prop-1-en-1-yl)-4-((3-(trifluoromethyl)phenyl)sulfonyl)-3,4-dihydro-2H-benzo[b][1,4]oxazin-2-yl)ethyl)thiomorpholine 1,1-dioxide] | *** (a value in the range of greater than 150 to 200) | * (a value in the range of 30 to 90)
